Source: patent US7595330B2, “Benzimidazole thiophene compounds” (SmithKline Beecham Corporation, priority 2005, dated 2009)
pIC50: −log10 of the molar value. Read-outs that look alike come from different tables or passages of the source.

Assays:
PLK1 kinase domain = target: T1, PLK1 kinase domain (Homo sapiens, UniProt P53350); test: Assay for inhibition of PLK1 (SPA, 33P-ATP, biotinylated peptide substrate); type: biochemical; conditions: 1 μM ATP, 2 nM PLK1 kinase domain; read-out: PLK1 pIC50 (converted)
T1 construct: made in house; host or cells: baculovirus infected T. ni cells
T1 sequence (P53350 21-346): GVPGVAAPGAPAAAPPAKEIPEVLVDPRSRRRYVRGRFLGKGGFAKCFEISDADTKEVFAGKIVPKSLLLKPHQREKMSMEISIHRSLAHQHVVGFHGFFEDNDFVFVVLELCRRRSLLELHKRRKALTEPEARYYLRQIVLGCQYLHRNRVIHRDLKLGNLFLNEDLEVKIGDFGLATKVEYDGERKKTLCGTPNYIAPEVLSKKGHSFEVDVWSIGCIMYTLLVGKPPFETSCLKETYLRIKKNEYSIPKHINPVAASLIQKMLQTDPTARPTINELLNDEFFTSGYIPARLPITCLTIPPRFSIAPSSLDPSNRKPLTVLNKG
Procedure: I. Assay for Inhibition of PLK1
All procedures were performed at 4° C. Cells were lysed in 50 mM HEPES, 200 mM NaCl, 50 mM imidazole, 5% glycerol; pH 7.5. The homogenate was centrifuged at 14K rpm in a SLA-1500 rotor for 1 h and the supernatant filtered through a 1.2 micron filter. The supernatant was loaded onto a Nickel chelating Sepharose (Amersham Pharmacia) column and washed with lysis buffer. Protein was eluted using 20%, 30% and 100% buffer B steps where buffer B is 50 mM HEPES, 200 mM NaCl, 300 mM imidazole, 5% glycerol; pH 7.5. Fractions containing PLK were determined by SDS-PAGE. Fractions containing PLK were diluted five-fold with 50 mM HEPES, 1 mM DTT, 5% glycerol; pH 7.5, then loaded on an SP Sepharose (Amersham Pharmacia) column. After washing the column with 50 mM HEPES, 1 mM DTT, 5% glycerol; pH 7.5, PLK was step eluted with 50 mM HEPES, 1 mM DTT, 500 mM NaCl; 5% glycerol; pH 7.5. PLK was concentrated using a 10 kDa molecular weight cutoff membrane and then loaded onto a Superdex 200 gel filtration (Amersham Pharmacia) column equilibrated in 25 mM HEPES, 1 mM DTT, 500 mM NaCl, 5% glycerol; pH 7.5. Fractions containing PLK were determined by SDS-PAGE. PLK was pooled, aliquoted and stored at −80° C. Samples were quality controlled using mass spectrometry, N-terminal sequencing and amino acid analysis.
B. Enzyme activity +/− inhibitors was determined as follows: All measurements were obtained under conditions where signal production increased linearly with time and enzyme. Test compounds were added to white 384-well assay plates (0.1 μL for 10 μL and some 20 μL assays, 1 μL for some 20 μL assays) at variable known concentrations in 100% DMSO. DMSO (1-5% final, as appropriate) and EDTA (65 mM in reaction) were used as controls.
Reaction Mix (10 or 20 μL) was quickly added to each well immediately following addition of enzyme via automated liquid handlers and incubated 1-1.5 h at 22° C. The 20 μL enzymatic reactions were stopped with 50 μL of stop mix (50 mM EDTA, 4.0 mg/ml Streptavidin SPA beads in Standard Dulbecco's PBS (without Mg^2+ and Ca^2+), 50 μM ATP) per well. The 10 μL reactions were stopped with 10 μL of stop mix (50 mM EDTA, 3.0 mg/mL Streptavidin-coupled SPA Imaging Beads (“LeadSeeker”) in Standard Dulbecco's PBS (without Mg^2+ and Ca^2+), 50 μM ATP) per well. Plates were sealed with clear plastic seals, spun at 500×g for 1 min or settled overnight, and counted in Packard TopCount for 30 seconds/well (regular SPA) or imaged using a Viewlux imager (LeadSeeker SPA). Signal above background (EDTA controls) was converted to percent inhibition relative to that obtained in control (DMSO-only) wells.

HCT116 [1] = test: Methylene blue growth inhibition assay, HCT116; type: cell-based; conditions: Homo sapiens
Procedure: (§1) II. Methylene Blue Growth Inhibition Assay—Inhibition of Cell Proliferation by PLK1 Inhibitors
(§2) Generally, exponentially growing cell lines of different tumor origins, cultured in appropriate media containing 10% fetal bovine serum at 37° C. in a 5% CO2 incubator were plated at low density (less than 2000 cells/well) in 96-well plates. […]. Seventy two hours post-treatment, cell numbers were determined using 100 μl per well of methylene blue (Sigma M9140) (0.5% in 50:50 Ethanol:water). Stain was incubated at room temperature for 30 minutes before plates were rinsed and dye solubilized in 1% N-lauroyl sarcosine, sodium salt, (Sigma L5125, in PBS) (further details of a methylene blue assay are described below). Plates were read on a microplate reader, measuring the OD at 620 nm.
(§3) . The data are shown in Table 1 below and represent a compilation of several different experiments, each performed using the general parameters outlined above, although minor variations may have been employed in some instances.
(§4) In one assay, normal human foreskin fibroblasts (HFF), human colon (HCT116, RKO), lung (H460, A549) and breast (MCF7) tumor cell lines were cultured in high glucose DMEM (Life Technologies) containing 10% fetal bovine serum (FBS) at 37° C. in a humidified 5% CO2, 95% air incubator. Cells were harvested using trypsin/EDTA, counted using a haemocytometer, and plated in 100 μL of culture media per well, at the following densities, in a 96-well tissue culture plate (Falcon 3075): HFF 5,000 cells/well, HCT116 3,000 cells/well, RKO 2,500 cells/well, H460 2,500 cells/well, A549 5,000 cells/well, MCF7 4,000 cells/well. The next day, compounds were diluted in low glucose DMEM containing 100 μg/mL gentamicin, at twice the final required concentration, from 10 mM stock solutions in DMSO. 100 μL/well of these dilutions were added to the 100 μL of media currently in the assay plates. Medium containing 0.6% DMSO was added to control wells. The final concentration of DMSO in all wells was 0.3%. Cells were incubated at 37° C., 5% CO2 for 72 h. Medium was removed by aspiration. Cell biomass was estimated by staining cells with 80 μL per well methylene blue (Sigma M9140, 0.5% in 50:50 ethanol:water), and incubation at room temperature for 30-60 min. Stain was removed by aspiration and the plates rinsed by immersion in water, then air-dried. To release stain from the cells, 100 μL of solubilization solution was added (1% N-lauroyl sarcosine, Sodium salt, Sigma L5125, in PBS), and plates were shaken gently for about 30 min. Optical density at 620 nm was measured on a microplate reader. Percent inhibition of cell growth was calculated relative to vehicle treated control wells. […].

H460 = test: Methylene blue growth inhibition assay, H460; type: cell-based; conditions: Homo sapiens
Procedure: as §1, §2, §3, §4

MCF7 [2] = test: Methylene blue growth inhibition assay, MCF7; type: cell-based; conditions: Homo sapiens
Procedure: as §1, §2, §3, §4

A549 = test: Methylene blue growth inhibition assay, A549; type: cell-based; conditions: Homo sapiens
Procedure: as §1, §2, §3, §4

RKO = test: Methylene blue growth inhibition assay, RKO; type: cell-based; conditions: Homo sapiens, 72 h
Procedure: as §1, §2, §3, §4

[3] = test system: normal human foreskin fibroblasts (HFF); test: Methylene blue growth inhibition assay, HFF; type: cell-based; conditions: Fibroblast, 72 h
Procedure: as §1, §2, §3, §4

human plasma proteins = test: Protein binding to human plasma proteins using equilibrium dialysis; type: in vitro ADME; conditions: pH 7.4, equilibrium dialysis 6 h, 37° C.
Procedure: III. Determination of Protein Binding to Human Plasma Proteins Using Equilibrium Dialysis
96 Well Plate (High Throughput Dialysis): Stock solutions of compounds were spiked into human plasma at a target concentration of 2000 ng/mL. The mixture was inverted gently several times to insure homogeneity and triplicate 50 μL aliquots were collected to verify initial concentrations. Following assembly of dialysis plate (HTDialysis membrane strips, molecular weight cut off limit of 12,000-14,000 daltons), spiked plasma (150 μL) was placed in the donor compartment of the well and Phosphate Buffered Saline pH 7.4 (150 μL) in the receiver compartment. Eight wells were set up per compound and plasma type. Plate was placed in a 37° C. incubator on a plate shaker. Following the 6 h incubation period, the plate was removed. Single 50 μL aliquots from each donor and receiver compartment (per well) were analyzed. Sample analysis was by LC/MS/MS (results reported as Drug Peak Area/Internal Standard Peak Area ratios). Protein binding assay can also be performed using dialysis cells instead of HT Dialysis 96 well plates. In Table 1, % Protein Binding, +=>98%; ++=95-98%: +++=<95%.

[4] = High throughput solubility assay; type: physicochemical; conditions: aqueous buffer, pH 7.4, 0.05M phosphate buffer
Procedure: IV. High Throughput Solubility Assay
Two samples are prepared for each compound. One (the standard sample) contains the compound at a fixed concentration of 20 μM in an aqueous/organic mixed solvent cocktail. The other (the test sample) contains the compound at a maximum concentration of 200 μM in pH 7.4, 0.05M phosphate buffer and shaking for 24 h. The test sample is filtered by 0.45μ filter and then spun for 10 min to remove any undissolved solid. HPLC analyses are preformed on these samples. The peak areas are used for computing solubility.

HCT116 [5] = test: Cell-Titer-Glo inhibition of cell proliferation, HCT116; type: cell-based; conditions: Homo sapiens, HCT-116, CellTiter-Glo, 72 h
Procedure: (§5) V. Cell-Titer-Glo—Inhibition of Cell Proliferation by PLK1 Inhibitors
(§6) Exponentially growing cell lines of different tumor origins, cultured in appropriate media containing 10% fetal bovine serum at 37° C. in a 5% CO2 incubator were plated at low density (less than 2000 cells/well) in 96-well plates. Twenty four hours post-plating, cells were treated with different concentrations of test compounds ranging from 10 uM to 0.04 nM. Several wells were left untreated as a control. Seventy two hours post-treatment, cell numbers were determined using 50-100 ul per well of CellTiter-Glo (Promega #G7573). Plates were incubated at room temperature for 15 minutes and the chemiluminescent signal was read on the Victor V or Envison 2100 reader.
(§7) The Cell-Titer Glo data are shown in Table 2 below and represent a compilation of several different experiments, each performed using the general parameters outlined above, although minor variations may have been employed in some instances.

A549-L = test: Cell-Titer-Glo inhibition of cell proliferation, A549-L; type: cell-based; conditions: CellTiter-Glo, 72 h
Procedure: as §5, §6, §7

COLO205 = test: Cell-Titer-Glo inhibition of cell proliferation, COLO205; type: cell-based; conditions: Homo sapiens, COLO 205, CellTiter-Glo, 72 h
Procedure: as §5, §6, §7

HT29 = test: Cell-Titer-Glo inhibition of cell proliferation, HT29; type: cell-based; conditions: Homo sapiens, HT-29, CellTiter-Glo, 72 h
Procedure: as §5, §6, §7

MX-1 = test: Cell-Titer-Glo inhibition of cell proliferation, MX-1; type: cell-based; conditions: Homo sapiens, MX1, CellTiter-Glo, 72 h
Procedure: as §5, §6, §7

SKOV-3 = test: Cell-Titer-Glo inhibition of cell proliferation, SKOV-3; type: cell-based; conditions: Homo sapiens, SK-OV-3, CellTiter-Glo, 72 h
Procedure: as §5, §6, §7

H1299 = test: Cell-Titer-Glo inhibition of cell proliferation, H1299; type: cell-based; conditions: Homo sapiens, NCI-H1299, CellTiter-Glo, 72 h
Procedure: as §5, §6, §7

MCF7 [6] = test: Cell-Titer-Glo inhibition of cell proliferation, MCF7; type: cell-based; conditions: Homo sapiens, CellTiter-Glo, 72 h
Procedure: as §5, §6, §7

MV522 = test: Cell-Titer-Glo inhibition of cell proliferation, MV522; type: cell-based; conditions: CellTiter-Glo, 72 h
Procedure: as §5, §6, §7

MDA-MB-468 = test: Cell-Titer-Glo inhibition of cell proliferation, MDA-MB-468; type: cell-based; conditions: Homo sapiens, CellTiter-Glo, 72 h
Procedure: as §5, §6, §7

C[C@@H](Oc1cc(-n2cnc3ccc(CS(C)(=O)=O)cc32)sc1C(N)=O)c1ccccc1Cl [Example 2, 3-{[(1R)-1-(2-Chlorophenyl)ethyl]oxy}-5-{6-[(methylsulfonyl)methyl]-1H-benzimidazol-1-yl}-2-thiophenecarboxamide]
IC50 (PLK1 kinase domain): < 10 nM
pIC50 (HCT116 [1]; HCT-116, methylene blue, 72 h, HCT116, read-out: HCT116 IC50): > 7.00
pIC50 (H460; NCI-H460, methylene blue, 72 h, H460, read-out: H460 IC50): > 7.00
pIC50 (MCF7 [2]; methylene blue, 72 h, MCF7, read-out: MCF7 IC50): > 7.00
pIC50 (A549; methylene blue, 72 h, A549, read-out: A549 IC50): > 7.00
pIC50 (RKO; methylene blue, read-out: RKO IC50): > 7.00
pIC50 ([3]; methylene blue, HFF normal fibroblasts, read-out: HFF IC50): 6.00 to 7.00
fraction unbound at 6 h, 2000 ng/mL (human plasma proteins): 0.02 to 0.05
solubility at 24 h [4]: 30 to 100 µM

C[C@@H](Oc1cc(-n2cnc3ccc(OC4CCNCC4)cc32)sc1C(N)=O)c1ccccc1C(F)(F)F [Example 5, 5-[6-(4-Piperidinyloxy)-1H-benzimidazol-1-yl]-3-({(1R)-1-[2-(trifluoromethyl)phenyl]ethyl}oxy)-2-thiophenecarboxamide]
IC50 (HCT116 [1]; HCT-116, 72 h, read-out: HCT116 IC50 (μM)): < 0.1 µM
IC50 (H460; NCI-H460, 72 h, read-out: H460 IC50 (μM)): < 0.1 µM
IC50 (MCF7 [2]; MCF7, 72 h, read-out: MCF7 IC50 (μM)): < 0.1 µM
IC50 (A549; A549, 72 h, read-out: A549 IC50 (μM)): < 0.1 µM
IC50 (RKO; read-out: RKO IC50 (μM)): < 0.1 µM
IC50 ([3]; read-out: HFF IC50 (μM)): 0.1 to 1 µM
fraction unbound at 6 h, 2000 ng/mL (human plasma proteins): 0.02 to 0.05
solubility at 24 h [4]: > 100 µM
pIC50 (HCT116 [5]): > 6.30
pIC50 (A549-L): > 6.30
pIC50 (COLO205): > 6.30
pIC50 (HT29): > 6.30
pIC50 (MX-1): > 6.30
pIC50 (SKOV-3): > 6.30
pIC50 (H1299): > 6.30
pIC50 (MCF7 [6]): > 6.30
pIC50 (MV522): > 6.30
pIC50 (MDA-MB-468): > 6.30
